In article PMC11923649, “Novel C-2 Aromatic Heterocycle-Substituted Triterpenoids Inhibit Hedgehog Signaling in GLI1 Overexpression Cancer Cells” (ACS Omega, 2025):

Key:
[1] = test system: A549 (lung adenocarcinoma); experiment: MTS cytotoxicity assay, 72 h, A549; type: cell-based; conditions: Homo sapiens, A549, 72 h
Description: (§1) Based on the preliminary results and tests of a larger library of known triterpenoids, a small set of 2-substituted lupane and 18α-oleanane derivatives was designed and synthesized. As the first step, the cytotoxic activity of the synthesized derivatives was assessed using an MTS assay following 72 h of treatment (Table 1). Selected cell lines A549 (lung adenocarcinoma) and DU-145 (prostate cancer) are both dependent on Hh signaling. In addition, K562 (chronic myelogenous leukemia) was included as a cell line sensitive to Hh inhibitors[32] and a type of hematological malignancy with active Hh signaling.[33] MRC-5 lung fibroblasts and BJ human skin fibroblasts cell lines were used to evaluate the toxicity against nontumor cells. Compounds were also tested using the standard panel of other cancer cell lines, as described in our earlier work (Table 1).[27]
(§2) The human prostate tumor-derived cell line DU145 was obtained from ATCC (American Type Culture Collection) and cultured in RPMI 1640 (Roswell Park Memorial Institute) medium supplemented with 10% (v/v) fetal bovine serum (FBS). Human prostate tumor-derived LNCaP cells were obtained from ATCC and cultured in RPMI 1640 medium supplemented with 10% FBS. The human nonsmall cell lung carcinoma (NSCLC)-derived cell line HOP-62 was obtained from the DSMZ (German Collection of Microorganisms and Cell Cultures) and cultured in RPMI 1640 medium supplemented with 10% FBS. The human nonsmall cell lung carcinoma-derived cell line NCI-H322 was obtained from ECACC (European Collection of Authenticated Cell Cultures) and cultured in RPMI 1640 medium supplemented with 10% FBS. The human nonsmall cell lung carcinoma-derived cell line NCI-H522 was obtained from ATCC and cultured in RPMI 1640 medium supplemented with 10% FBS. The human lung tumor-derived cell line A549 was obtained from ATCC and cultured in Dulbecco’s Modified Eagle’s Medium (DMEM) supplemented with 10% FBS. The human medulloblastoma-derived cell line DAOY was obtained from ATCC and cultured in Eagle’s Minimum Essential Medium (EMEM) supplemented with 10% FBS. The human glioblastoma-derived cell line T98G was obtained from ATCC and cultured in EMEM medium supplemented with 10% FBS, 1 mmol/L sodium pyruvate, and 1 mmol/L nonessential amino acid mixture. All the above-mentioned cell lines were cultured at 37 °C in an atmosphere of 5% CO2 with 95% humidity. The cytotoxicity MTS assays were performed using MTS (3-(4,5-dimethylthiazol-2-yl)-5-(3-carboxymethoxyphenyl)-2-(4-sulfophenyl)-2H-tetrazolium) tetrazolium salt. Briefly, cells were seeded in a 384-well transparent plate in a volume of 25 μL and a concentration of 15,000 cells/mL (DU145, LNCaP, HOP-62, A549, DAOY, T98G) or 30,000 cells/mL (NCI-H322, NCI-H522). The next day, cells were exposed to compounds in a concentration range of 50–0.0975 μmol/L (dilution factor 2) and cultured in the presence of the compounds for 72 h. After 72 h, 5 μL of MTS/phenazine methosulfate solution was pipetted into each well and incubation continued for 1–4 h. Finally, the absorbance at 490 nm was measured using an EnVision multifunctional modular reader (PerkinElmer). The IC50 value was determined using Dotmatics software.

DU-145 (prostate cancer) = experiment: MTS cytotoxicity assay, 72 h, DU-145; type: cell-based, human
Description: as §1, §2

[2] = test system: K562 (chronic myelogenous leukemia); experiment: MTS cytotoxicity assay, 72 h, K562; type: cell-based; conditions: Homo sapiens
Description: as §1, §2

K562-TAX = experiment: MTS cytotoxicity assay, 72 h, K562-TAX; type: cell-based
Description: as §1, §2

HCT 116 = experiment: MTS cytotoxicity assay, 72 h, HCT 116; type: cell-based; conditions: Homo sapiens, HCT-116, 72 h
Description: as §1, §2

HCT116 p53–/– = experiment: MTS cytotoxicity assay, 72 h, HCT116 p53–/–; type: cell-based; conditions: Homo sapiens, HCT-116, 72 h
Description: as §1, §2

U2OS = experiment: MTS cytotoxicity assay, 72 h, U2OS; type: cell-based; conditions: Homo sapiens
Description: as §1, §2

CCRF-CEM = experiment: MTS cytotoxicity assay, 72 h, CCRF-CEM; type: cell-based; conditions: for IC50: Homo sapiens, CCRF-CEM, 72 h, MTS
Description: as §1, §2

CEM-DNR = experiment: MTS cytotoxicity assay, 72 h, CEM-DNR; type: cell-based; conditions: Homo sapiens
Description: as §1, with “1).[27] […]” for “1).[27]”

[3] = test system: BJ human skin fibroblasts; experiment: MTS cytotoxicity assay, 72 h, BJ fibroblasts; type: cell-based; conditions: normal fibroblasts; for IC50: Homo sapiens, Skin fibroblast
Description: as §1, §2

MRC-5 lung fibroblasts = experiment: MTS cytotoxicity assay, 72 h, MRC-5 fibroblasts; type: cell-based, human; conditions: normal fibroblasts; for IC50: Homo sapiens, MRC5, 72 h
Description: as §1, §2

[4] = Homo sapiens, DU-145, 72 h, Table 1
[5] = Homo sapiens, DU-145, 72 h, full Table S1
[6] = IC50 of CCRF-CEM line vs average of both fibroblasts (BJ and MRC-5), Table 1
[7] = CCRF-CEM vs average of BJ and MRC-5, full Table S1

Row | SMILES | IC50 ([1]; Table 1) [µM] | IC50 (DU-145 (prostate cancer); [4]) [µM] | IC50 (DU-145 (prostate cancer); [5]) [µM] | IC50 ([2]; Table 1) [µM] | IC50 (K562-TAX; Table 1) [µM] | IC50 (HCT 116; Table 1) [µM] | IC50 (HCT116 p53–/–; Table 1) [µM] | IC50 (U2OS; Table 1) [µM] | IC50 (CCRF-CEM; Table 1) [µM] | IC50 (CCRF-CEM; full Table S1) [µM] | IC50 (CEM-DNR; full Table S1) [µM] | IC50 ([1]; full Table S1) [µM] | IC50 ([2]; full Table S1) [µM] | IC50 (K562-TAX; full Table S1) [µM] | IC50 (HCT 116; full Table S1) [µM] | IC50 (HCT116 p53–/–; full Table S1) [µM] | IC50 (U2OS; full Table S1) [µM] | SI (selectivity index) (CCRF-CEM; [7]) | IC50 ([3]; full Table S1) [µM] | IC50 (MRC-5 lung fibroblasts; full Table S1) [µM] | other results
1 | CC1(C)C(=O)C(c2cccnc2)=C[C@@]2(C)C1CC[C@]1(C)C2CCC2C3[C@H]4OC[C@@]3(CCC4(C)C)CC[C@]21C (stereo partly drawn) [Compound 4g, 2-(Pyridin-3-yl)-19β,28-epoxyolean-1-en-3-one] | > 50 | 43 | 43.3 | > 50 | 19 | > 50 | > 50 | > 50 | 25 | 25.4 | 15.5 | – | – | – | – | – | – | – | – | – | SI (selectivity index) (CCRF-CEM; [6]): >2.0; IC50 (CEM-DNR; Table 1): 16 µM; IC50 ([3]; Table 1): > 50 µM; IC50 (MRC-5 lung fibroblasts; Table 1): > 50 µM
2 | C=C(C)[C@@H]1CC[C@]2(C(=O)OCc3ccccc3)CC[C@]3(C)C(CCC4[C@@]5(C)C=C(c6cccs6)C(=O)C(C)(C)C5CC[C@]43C)C12 (stereo partly shown) [Compound 10c, Benzyl 2-(2-Thiophenyl)-3-oxolupa-1,20(29)-dien-28-oate] | – | – | > 50 | – | – | – | – | – | – | > 50 | > 50 | > 50 | > 50 | > 50 | > 50 | > 50 | > 50 | > 1.0 | > 50 | > 50 | –
3 | C=C(C)[C@@H]1CC[C@]2(C(=O)OCc3ccccc3)CC[C@]3(C)C(CCC4[C@@]5(C)C=C(c6cncnc6)C(=O)C(C)(C)C5CC[C@]43C)C12 (stereo partly shown) [Compound 10i, Benzyl 2-(5-Pyrimidinyl)-3-oxolupa-1,20(29)-dien-28-oate] | – | – | > 50 | – | – | – | – | – | – | > 50 | > 50 | > 50 | > 50 | > 50 | > 50 | > 50 | > 50 | > 1.0 | > 50 | > 50 | –
4 | CC1(C)C(=O)C(c2ccco2)=C[C@@]2(C)C1CC[C@]1(C)C2CCC2C3[C@H]4OC[C@@]3(CCC4(C)C)CC[C@]21C (stereo partly drawn) [Compound 4a, 2-(Furan-2-yl)-19β,28-epoxyolean-1-en-3-one] | – | – | > 50 | – | – | – | – | – | – | > 50 | > 50 | > 50 | > 50 | > 50 | > 50 | > 50 | > 50 | > 1.0 | > 50 | > 50 | –
5 | C=C(C)[C@@H]1CC[C@]2(C(=O)O)CC[C@]3(C)C(CCC4[C@@]5(C)C=C(c6ccc7cn[nH]c7c6)C(=O)C(C)(C)C5CC[C@]43C)C12 (stereo partly shown) [Compound 11n, 2-(Indazol-6-yl)-3-oxolupa-1,20(29)-dien-28-oic acid] | 15 | 8.3 | – | 22 | 12 | 15 | 17 | 21 | 4.9 | – | 21.9 | 15.1 | 22.3 | 12.1 | 14.9 | 16.8 | 20.5 | – | 35.1 | 26.5 | SI (selectivity index) (CCRF-CEM; [6]): 6.3; IC50 (CEM-DNR; Table 1): 22 µM; IC50 ([3]; Table 1): 35 µM; IC50 (MRC-5 lung fibroblasts; Table 1): 27 µM
6 | CC1(C)C(=O)C(c2cncnc2)=C[C@@]2(C)C1CC[C@]1(C)C2CCC2C3[C@H]4OC[C@@]3(CCC4(C)C)CC[C@]21C (stereo partly drawn) [Compound 4i, 2-(Pyrimidin-5-yl)-19β,28-epoxyolean-1-en-3-one] | > 50 | > 50 | – | > 50 | > 50 | > 50 | > 50 | > 50 | > 50 | – | 27.4 | – | – | – | – | – | – | – | – | – | IC50 (CEM-DNR; Table 1): 27 µM; IC50 ([3]; Table 1): > 50 µM; IC50 (MRC-5 lung fibroblasts; Table 1): > 50 µM
7 | C=C(C)[C@@H]1CC[C@]2(C(=O)O)CC[C@]3(C)C(CCC4[C@@]5(C)C=C(c6cncc7ccccc67)C(=O)C(C)(C)C5CC[C@]43C)C12 (stereo partly shown) [Compound 11l, 2-(Isoquinoline)-3-oxolupa-1,20(29)-dien-28-oic acid] | 14 | 8.3 | – | > 50 | 8.7 | 19 | 31 | 25 | 7.2 | – | – | 13.9 | – | – | 18.5 | 30.8 | 24.8 | – | – | – | SI (selectivity index) (CCRF-CEM; [6]): >7.0; IC50 (CEM-DNR; Table 1): 17 µM; IC50 ([3]; Table 1): > 50 µM; IC50 BJ ([3]; Table 1): below the detection limit; IC50 (MRC-5 lung fibroblasts; Table 1): > 50 µM; IC50 MRC-5 (MRC-5 lung fibroblasts; Table 1): below the detection limit
8 | C=C(C)[C@@H]1CC[C@]2(C(=O)OCc3ccccc3)CC[C@]3(C)C(CCC4[C@@]5(C)C=C(c6ccsc6)C(=O)C(C)(C)C5CC[C@]43C)C12 (stereo partly shown) [Compound 10d, Benzyl 2-(3-Thiophenyl)-3-oxolupa-1,20(29)-dien-28-oate] | – | – | > 50 | – | – | – | – | – | – | > 50 | > 50 | > 50 | > 50 | > 50 | > 50 | > 50 | > 50 | > 1.0 | > 50 | > 50 | –
9 | CN(C)c1ccccc1CN1CCCN(Cc2ccccc2N(C)C)C1c1ccncc1 [GANT-61, reference compound] | – | – | – | – | – | – | – | – | – | – | – | – | – | – | – | – | – | – | – | – | IC50 (DU-145 (prostate cancer); Table 1): > 50 µM
10 | C=C(C)[C@@H]1CC[C@]2(C(=O)OCc3ccccc3)CC[C@]3(C)C(CCC4[C@@]5(C)C=C(c6cncc7ccccc67)C(=O)C(C)(C)C5CC[C@]43C)C12 (stereo partly shown) [Compound 10l, Benzyl 2-(4-Isoquinoline)-3-oxolupa-1,20(29)-dien-28-oate] | – | – | > 50 | – | – | – | – | – | – | > 50 | > 50 | > 50 | > 50 | > 50 | > 50 | > 50 | > 50 | > 1.0 | > 50 | > 50 | –
11 | CC1(C)C(=O)C(c2ccsc2)=C[C@@]2(C)C1CC[C@]1(C)C2CCC2C3[C@H]4OC[C@@]3(CCC4(C)C)CC[C@]21C (stereo partly drawn) [Compound 4d, 2-(Thiophene-3-yl)-19β,28-epoxyolean-1-en-3-one] | – | – | > 50 | – | – | – | – | – | – | > 50 | > 50 | > 50 | > 50 | > 50 | > 50 | > 50 | > 50 | > 1.0 | > 50 | > 50 | –
